Test: Stability study in basic medium (0.05M K2CO3 in methanol)
Format: physicochemical

For `CCCCN(CCCC)c1ccc2nc3ccc(N(CCO)CCO)cc3[s+]c2c1.[I-]` [Ra═Rb═butyl and Rc═Rd═ethanol, (dibutylamino)(diethanolamino)phenothiazinium iodide], the “Stability after treatment in 0.05M K2CO3/MeOH” value (from here on “Stability … in 0.05M K2CO3/MeOH”) (4 h) was 73% and the “Stability … in 0.05M K2CO3/MeOH” value (17 h) was 25%.

With `CCCCN(CCCCO)c1ccc2nc3ccc(N(CCCC)CCCCO)cc3[s+]c2c1.[I-]` [Ra═Rc═butyl and Rb═Rd═butanol, bis(butylbutanolamino)phenothiazinium iodide] the “Stability … in 0.05M K2CO3/MeOH” value (4 h) was 91% and the “Stability … in 0.05M K2CO3/MeOH” value (17 h) was 66%.
